Drawing on EPA's ToxValDB 9.5 (doi:10.2903/j.efsa.2008.119r), this text covers NOEC, NOAEL and LEL for one molecule.

Series [1] relates to Coturnix japonica. The following applies: reproduction developmental.
Series [2] concerns Oryctolagus sp. The following applies: reproduction developmental; mortality.
The test system of series [3] is Tagia sp. The following applies: chronic/long-term; duration: 56 days.
Series [4] has as its system Oncorhynchus mykiss. The following applies: chronic/long-term; duration: 21 days; growth.
Series [5] relates to Mus musculus. The following applies: chronic; duration: 2 years; hematological.
Series [6] concerns Typhlodromus pyri. The following applies: not reported; mortality.
Series [7] has as its system Rattus norvegicus.
The test system of series [8] is Bibionidae. The following applies: chronic/long-term; duration: 28 days.
For series [9], the system named is Daphnia magna. The following applies: chronic/long-term; duration: 21 days; reproduction.

`COC(=O)c1cc(Oc2ccc(Cl)cc2Cl)ccc1[N+](=O)[O-]` [Bifenox]: the NOEC is 290 mg/kg-day in [1]; 5.1 mg/kg in [3]; 0.0091 mg/L in series [4]; 0.015 mg/L in [8]; 0.00015 mg/L in series [9]. For the same molecule, the no observed adverse effect level (NOAEL) in series [2] came to 50 mg/kg-day; in series [5], 30 mg/kg-day; in [7] (chronic), 16 mg/kg-day; in series [7] (reproduction developmental, reproduction) it was 44.5 mg/kg-day. Further, in series [6], the LEL amounted to 720 g/ha.

By NOAEL is commonly meant the highest tested level that showed no adverse finding.
